Measured values reported in patent US12509414B2, “Carbon quantum dot, a composition thereof and a method for treating infection by using same” (NATIONAL TAIWAN OCEAN UNIVERSITY, priority 2019, dated 2025).

System: E. coli (Escherichia coli)
Assay: Antibacterial test, MIC by standard dilution method (O.D. 600)
Assay type: cell-based
Conditions: FIG. 4
Procedure: The minimum inhibitory concentration (MIC) value of a carbon quantum dot was determined by a standard dilution method in a variety of tested bacterial strains, including E. coli (Escherichia coli), P. aeruginosa (Pseudomonas aeruginosa), S. enteritidis (Salmonella enterica), S. aureus (Staphylococcus aureus), MRSA (Methicillin-resistant Staphylococcus aureus, a multi-drug resistant Staphylococcus), S. iniae (Streptococcus iniae), and C. albicans (Candida albicans).
A single colony of each strain was removed from the culture medium, and inoculated in each suitable growth medium (10 mL). The cultured bacteria were grown at 37° C. with shaking (200 rpm), until the absorbance at 600 nm (O.D. 600) reaches 1.0 (optical path length: 1.0 cm). Each cell mixture was centrifuged at 1.0 mL (RCF 3,000×g, […], 25° C.), and washed twice with 5 mM sodium phosphate buffer (pH 7.4) before further use. The carbon quantum dots were mixed with a 10^5 CFU/mL bacterial solution, and the final concentration of the reaction bacterial solution was 10^4 CFU/mL. After reaction for 3 hours, each suitable growth medium was added. After 12 hours of incubation in the incubator at the culture temperature of each strain, the absorbance at 600 nm (O.D. 600) was measured.

For `NCCCCCCN` [C, 1,6-diamino-hexane], the “antibacterial ability (comparison in words)” value was “worst antibacterial effect”.
